The record followed here is US12624044B2, “SMARCA degraders and uses thereof” (Kymera Therapeutics, Inc., priority 2019, dated 2026).

What all share (type): cell-based
Assay [1] addresses T1, SMARCA2 (Homo sapiens, UniProt P51531). Kind of assay: MSD SMARCA2 degradation in A549 cell line. Particulars: 24 h; for DC50: A549 cells, read-out: SMARCA2 MSD A549 degradation 24 h: Average external-Abs DC50; for Dmax: A549, A549 cells. In outline: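 SMARCA2 remaining was measured by MSD electrochemiluminescence on RIPA lysates (anti-SMARCA2 plus SULFO-TAG anti-rabbit). Prior exposure: 24 h of A549 cells to a 10-point, 3-fold dilution series topping at 1000 nM final; Dmax % given as graded codes.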

For another assay, the target named is T2, SMARCA4 (Homo sapiens, UniProt P51532).
T2 construct: SMARCA2 and SMARCA4 protein degradation in MV4-11 cells; endogenous in cells; host or cells: MV4-11
Kind of assay: SMARCA4 Western blot MV4-11 degradation. The settings on record: 24 h; for DC50: MV4-11 cells, read-out: SMARCA4 WB MV411 degradation 24 h: Average external-Abs DC50; for Dmax: MV4-11, MV4-11 cells, read-out: SMARCA4 WB MV411 degradation 24 h: Average Dmax %. The procedure:
Cells were seeded into 6-well plates (MV4-11: 4×10^6 cells/well/1 ml) and 1 ml of 2× compound solution was added into the well to make the final concentration and the plates were mixed well and incubated for 24 hours (No cytotoxicity was observed). The cell were collected with media and spun at 3000 rpm for 5 minutes. The supernatant was aspirated and the well and the cells were washed with cold PBS once and combined for centrifugation again; the supernatant aspirated again. 200 ul pre-chilled RIPAlysis buffer (Boston BioProducts BP-115D) with protease/phosphatase inhibitor (Roche 05892791001/Roche 04906837001) was directly added into the tube to lyze the cells for 20 minutes on ice. The cell lysate were collected into EP tubes and spun at 13000 rpm for 20 minutes and 72 ul supernatant was transferred to a fresh EP tube containing 18 ul of 5× loading buffer (Beyotime Bio P0015) to make the loading samples. The samples were heated to 100° C. for 10 minutes and cooled to RT and microcentrifuged. 20 ul of samples were loaded onto SDS-PAGE gel (Novex, WG1402BOX) and the gel was run at 80 V for 20 minutes and 120 V for 1.5 hours. The samples were electrotransfer to a NC membrane using wet-transfer method with 250 mA for 2.5 hours. The membrane was blocked with LICOR blocking buffer (LI-COR, 927-50000) for 1 hour. The membrane was washed three times with TBST (CST #9997S), 5 minutes each. Incubation was performed with primary antibody prepared in blocking buffer with 0.1% Tween-20 (Solarbio, P8220) at 4° C. overnight (Anti-SMARCA2/BRM antibody (ab15597) 1:500; Anti-BRG1 antibody [EPR3912] (ab108318) 1:1000; Rabbit anti-Baf180 antibody [EPR15860] (Abcam, ab196022) 1:1000; mouse anti-beta-Actin (8H10D10) (CST #3700) 1:10000). The membrane was washed three times with TBST, 5 minutes each. Incubation with secondary antibody was performed for 1 hour at RT (anti-rabbit IgG (Licor, 926-32211) 1:5000; anti-mouse IgG (LI-COR, 926-68070) 1:5000). The membrane was washed three times with TBST, 5 minutes each and lastly the LiCOR was read.
The letter codes for the percentage of SMARCA degradation after 24 hours (Dmax %) include: A (>90% degradation), B (>70-90% degradation), C (50-70% degradation), and D (<50% degradation).

In assay [2] the target is T1, SMARCA2. Kind of assay: MSD SMARCA2 degradation in NCI-H1299 cell line (24 h). On the set-up: HC: NCI-H1299 cells treated with DMSO; host or cells: NCI-H1299. Particulars: for Dmax: NCI-H1299, NCI-H1299 cells; for DC50: NCI-H1299 cells, read-out: SMARCA2 MSD H1299 degradation 24 h: External Abs-DC50. The essentials:
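SMARCA2 measured by MSD electrochemiluminescence (primary 0.3 ug/ml, secondary 1 ug/ml) on lysates from NCI-H1299 cells exposed to compounds for 24 h across nine 3-fold dilutions. Signal scaled from A2780 cells (no SMARCA2) to DMSO-treated H1299 controls, and maximal degradation after 24 h reported in letter categories.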

T2 sequence (P51532 whole entry): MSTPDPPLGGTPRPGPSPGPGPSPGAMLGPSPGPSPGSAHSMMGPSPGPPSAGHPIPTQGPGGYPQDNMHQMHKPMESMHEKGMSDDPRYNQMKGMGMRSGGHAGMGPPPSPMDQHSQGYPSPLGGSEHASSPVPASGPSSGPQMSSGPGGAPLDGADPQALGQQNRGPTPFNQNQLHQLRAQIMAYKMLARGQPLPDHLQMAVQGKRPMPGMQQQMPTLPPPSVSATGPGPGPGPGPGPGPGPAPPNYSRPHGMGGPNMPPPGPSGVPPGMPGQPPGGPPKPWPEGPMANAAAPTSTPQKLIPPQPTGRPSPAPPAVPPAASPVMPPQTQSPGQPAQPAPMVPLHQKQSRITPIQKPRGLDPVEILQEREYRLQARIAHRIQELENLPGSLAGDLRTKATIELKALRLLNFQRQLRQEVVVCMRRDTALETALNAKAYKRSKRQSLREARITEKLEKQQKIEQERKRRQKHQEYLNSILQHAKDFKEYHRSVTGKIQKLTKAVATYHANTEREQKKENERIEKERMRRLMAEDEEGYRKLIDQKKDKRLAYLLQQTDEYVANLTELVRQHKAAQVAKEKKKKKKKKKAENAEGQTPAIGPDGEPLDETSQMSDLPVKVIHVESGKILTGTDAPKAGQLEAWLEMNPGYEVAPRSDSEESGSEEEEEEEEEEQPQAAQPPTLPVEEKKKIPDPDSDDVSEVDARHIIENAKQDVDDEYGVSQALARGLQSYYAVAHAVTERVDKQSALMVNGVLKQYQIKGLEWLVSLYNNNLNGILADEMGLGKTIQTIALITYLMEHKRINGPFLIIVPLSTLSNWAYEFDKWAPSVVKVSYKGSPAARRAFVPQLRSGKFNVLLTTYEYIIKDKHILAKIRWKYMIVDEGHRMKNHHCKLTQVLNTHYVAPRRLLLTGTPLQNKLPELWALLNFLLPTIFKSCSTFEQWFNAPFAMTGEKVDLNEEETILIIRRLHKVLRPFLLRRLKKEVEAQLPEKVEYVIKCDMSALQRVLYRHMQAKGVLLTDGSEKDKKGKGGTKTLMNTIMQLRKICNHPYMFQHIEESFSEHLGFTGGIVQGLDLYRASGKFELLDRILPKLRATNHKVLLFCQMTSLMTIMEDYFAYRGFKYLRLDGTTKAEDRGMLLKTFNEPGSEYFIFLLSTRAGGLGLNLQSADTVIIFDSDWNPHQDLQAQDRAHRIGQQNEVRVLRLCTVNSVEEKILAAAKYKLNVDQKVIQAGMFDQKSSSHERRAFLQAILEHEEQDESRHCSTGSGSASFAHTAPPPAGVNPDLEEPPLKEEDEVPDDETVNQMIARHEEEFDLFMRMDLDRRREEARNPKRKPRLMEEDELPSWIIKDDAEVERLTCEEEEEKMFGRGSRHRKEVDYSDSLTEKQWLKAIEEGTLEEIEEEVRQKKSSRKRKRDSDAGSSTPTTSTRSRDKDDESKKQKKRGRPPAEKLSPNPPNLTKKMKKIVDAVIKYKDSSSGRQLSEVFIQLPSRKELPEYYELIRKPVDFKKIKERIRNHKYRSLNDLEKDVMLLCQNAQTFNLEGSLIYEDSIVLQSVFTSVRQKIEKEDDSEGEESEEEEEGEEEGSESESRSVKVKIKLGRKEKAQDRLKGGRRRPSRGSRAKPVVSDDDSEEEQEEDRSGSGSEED
T1 sequence (P51531 whole entry): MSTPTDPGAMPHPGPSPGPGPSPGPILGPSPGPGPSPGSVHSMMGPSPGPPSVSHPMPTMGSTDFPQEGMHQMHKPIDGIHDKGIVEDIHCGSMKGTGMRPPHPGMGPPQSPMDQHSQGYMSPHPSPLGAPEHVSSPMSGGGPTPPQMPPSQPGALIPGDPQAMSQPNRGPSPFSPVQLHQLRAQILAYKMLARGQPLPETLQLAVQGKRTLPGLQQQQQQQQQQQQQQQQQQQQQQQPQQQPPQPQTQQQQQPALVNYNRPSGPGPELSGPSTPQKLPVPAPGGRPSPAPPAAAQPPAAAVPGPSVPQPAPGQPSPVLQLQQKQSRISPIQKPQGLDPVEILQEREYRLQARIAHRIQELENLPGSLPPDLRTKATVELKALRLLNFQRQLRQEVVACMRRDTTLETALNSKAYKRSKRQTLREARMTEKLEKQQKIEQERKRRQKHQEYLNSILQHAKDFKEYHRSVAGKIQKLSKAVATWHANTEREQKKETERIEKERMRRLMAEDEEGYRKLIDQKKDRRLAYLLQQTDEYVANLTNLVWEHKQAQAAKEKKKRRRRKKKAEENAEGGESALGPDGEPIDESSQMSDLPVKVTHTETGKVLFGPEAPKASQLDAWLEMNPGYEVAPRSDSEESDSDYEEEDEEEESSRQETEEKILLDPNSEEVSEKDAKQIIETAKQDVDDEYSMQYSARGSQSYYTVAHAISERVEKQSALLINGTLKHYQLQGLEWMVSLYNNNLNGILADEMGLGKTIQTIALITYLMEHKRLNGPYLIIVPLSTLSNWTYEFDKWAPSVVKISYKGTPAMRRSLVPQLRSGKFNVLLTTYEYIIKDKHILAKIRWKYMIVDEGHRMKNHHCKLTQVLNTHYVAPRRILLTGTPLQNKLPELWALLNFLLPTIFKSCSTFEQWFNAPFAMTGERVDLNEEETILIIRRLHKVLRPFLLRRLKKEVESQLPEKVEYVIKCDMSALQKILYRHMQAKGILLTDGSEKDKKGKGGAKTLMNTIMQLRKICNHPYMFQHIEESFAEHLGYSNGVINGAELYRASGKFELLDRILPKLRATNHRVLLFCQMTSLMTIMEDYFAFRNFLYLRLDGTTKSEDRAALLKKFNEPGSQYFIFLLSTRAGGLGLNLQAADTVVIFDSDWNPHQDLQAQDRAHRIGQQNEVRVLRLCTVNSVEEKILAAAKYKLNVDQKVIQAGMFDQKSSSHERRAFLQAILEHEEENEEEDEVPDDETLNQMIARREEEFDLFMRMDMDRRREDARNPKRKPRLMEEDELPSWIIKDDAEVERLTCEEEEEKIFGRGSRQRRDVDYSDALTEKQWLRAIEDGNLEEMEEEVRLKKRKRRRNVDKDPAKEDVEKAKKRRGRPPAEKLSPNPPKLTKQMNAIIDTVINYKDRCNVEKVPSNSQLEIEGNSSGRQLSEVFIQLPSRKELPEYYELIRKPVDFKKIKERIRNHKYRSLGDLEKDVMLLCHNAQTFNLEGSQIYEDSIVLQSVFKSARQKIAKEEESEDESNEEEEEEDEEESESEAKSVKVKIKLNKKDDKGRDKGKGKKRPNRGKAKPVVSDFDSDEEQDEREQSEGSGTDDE

Broadly, the DC50 is the concentration at which degradation of the target reaches its halfway point. Turning to `Cn1c(=O)n(C2CCC(=O)NC2=O)c2ccc(C3CC4(C3)CC(N3CCC(c5cnc(N6C7CCC6CN(c6cc(-c8ccccc8O)nnc6N)C7)nc5)CC3)C4)cc21` (single isomer, unassigned) [I-536 (P2), 3-(5-(6-(4-(2-(3-(3-amino-6-(2-hydroxyphenyl)pyridazin-4-yl)-3,8-diazabicyclo[3.2.1]octan-8-yl)pyrimidin-5-yl)piperidin-1-yl)spiro[3.3]heptan-2-yl)-3-methyl-2-oxo-2,3-dihydro-1H-benzo[d]imidazol-1-yl)piperidine-2,6-dione], the half-maximal degradation concentration (DC50) at SMARCA2 [1] and on SMARCA4 was less than 100 nM throughout.

Turning to `Cn1c(=O)n(C2CCC(=O)NC2=O)c2ccc(C3CC4(C3)CC(N3CCC(c5cnc(N6C7CCC6CN(c6cc(-c8ccccc8O)nnc6N)C7)nc5)CC3)C4)cc21` (single isomer, unassigned) [I-536 (P3), 3-(5-(6-(4-(2-(3-(3-amino-6-(2-hydroxyphenyl)pyridazin-4-yl)-3,8-diazabicyclo[3.2.1]octan-8-yl)pyrimidin-5-yl)piperidin-1-yl)spiro[3.3]heptan-2-yl)-3-methyl-2-oxo-2,3-dihydro-1H-benzo[d]imidazol-1-yl)piperidine-2,6-dione], the DC50 at SMARCA2 [1] and at SMARCA4 was less than 100 nM in each case.

Usually Dmax stands for the largest share of the target that was removed. With `Cn1c(=O)n(C2CCC(=O)NC2=O)c2ccc(CCCN3CCC(c4nccc(N5C6CCC5CN(c5cc(-c7ccccc7O)nnc5N)C6)n4)CC3)cc21` (centres unmarked) [I-278], at SMARCA2 [1], the Dmax was greater than 90% and the 50% degradation concentration (DC50) is less than 100 nM. At SMARCA4, the Dmax was greater than 90% and the half-maximal degradation concentration (DC50) was less than 100 nM.

As to `Cn1c(=O)n(C2CCC(=O)NC2=O)c2ccc([C@H]3CC[C@@H](N4CCC(c5nccc(N6C7CCC6CN(c6cc(-c8ccccc8O)nnc6N)C7)n5)CC4)CC3)cc21` (some centres unmarked) [I-279, 3-(5-((1s,4s)-4-(4-(4-(3-(3-amino-6-(2-hydroxyphenyl)pyridazin-4-yl)-3,8-diazabicyclo[3.2.1]octan-8-yl)pyrimidin-2-yl)piperidin-1-yl)cyclohexyl)-3-methyl-2-oxo-2,3-dihydro-1H-benzo[d]imidazol-1-yl)piperidine-2,6-dion], on SMARCA2 [1], the Dmax was greater than 90% and the 50% degradation concentration (DC50) is less than 100 nM. Also, at SMARCA4, the Dmax was greater than 90% and the DC50 is less than 100 nM.

Turning to `Cc1ncsc1-c1ccc(CNC(=O)[C@@H]2C[C@@H](O)CN2C(=O)[C@@H](NC(=O)CN2CCCC(n3cc(-c4cc(-c5ccccc5O)nnc4N)cn3)C2)C(C)(C)C)cc1` (some centres unmarked) [I-452], on SMARCA2 [2], the maximal degradation (Dmax) is less than 50% and the 50% degradation concentration (DC50) is greater than 1000 nM. On SMARCA4, the maximal degradation (Dmax) was less than 50% and the half-maximal degradation concentration (DC50) was in the range of 100 to 500 nM.

Regarding `Cc1ncsc1-c1ccc(CNC(=O)[C@@H]2C[C@@H](O)CN2C(=O)[C@@H](NC(=O)CCCCCN2CCCC(n3cc(-c4cc(-c5ccccc5O)nnc4N)cn3)C2)C(C)(C)C)cc1` (some centres unmarked) [I-456], on SMARCA2 [2], the Dmax was less than 50% and the DC50 is greater than 1000 nM. In addition, at SMARCA4, the greatest degradation seen (Dmax) was less than 50% and the DC50 lay in the range of 100 to 500 nM.

Turning to `Cc1ncsc1-c1ccc(CNC(=O)[C@@H]2C[C@@H](O)CN2C(=O)[C@@H](NC(=O)CN2CCC(n3cc(-c4cc(-c5ccccc5O)nnc4N)cn3)CC2)C(C)(C)C)cc1` [I-457], on SMARCA2 [2], the Dmax fell in the range of 70 to 90% and the DC50 lay within 501 to 1000 nM. At SMARCA4, the maximal degradation (Dmax) was 70 to 90% and the DC50 was in the range of 100 to 500 nM.

Take `Cc1ncsc1-c1ccc(CNC(=O)[C@@H]2C[C@@H](O)CN2C(=O)[C@@H](NC(=O)CCCN2CCC(n3cc(-c4cc(-c5ccccc5O)nnc4N)cn3)CC2)C(C)(C)C)cc1` [I-459]: the greatest degradation seen (Dmax) on SMARCA2 [2] and at SMARCA4 was less than 50% each time. The DC50 on SMARCA2 [2] and on SMARCA4 was 100 to 500 nM in each case.

With `Cc1ncsc1-c1ccc(CNC(=O)[C@@H]2C[C@@H](O)CN2C(=O)[C@@H](NC(=O)CCCCN2CCC(n3cc(-c4cc(-c5ccccc5O)nnc4N)cn3)CC2)C(C)(C)C)cc1` [I-460], the Dmax at SMARCA2 [2] and on SMARCA4 was less than 50% throughout. Also, the 50% degradation concentration (DC50) on SMARCA2 [2] and on SMARCA4 was 100 to 500 nM throughout.

Consider `Cc1ncsc1-c1ccc(CNC(=O)[C@@H]2C[C@@H](O)CN2C(=O)[C@@H](NC(=O)CCCCCN2CCC(n3cc(-c4cc(-c5ccccc5O)nnc4N)cn3)CC2)C(C)(C)C)cc1` [I-461], for which, on SMARCA2 [2], the Dmax fell in the range of 50 to 70% and the 50% degradation concentration (DC50) lay in the range of 501 to 1000 nM. Moreover, at SMARCA4, the maximal degradation (Dmax) lay within 50 to 70% and the half-maximal degradation concentration (DC50) was 100 to 500 nM.

On to `Cc1ncsc1-c1ccc(CNC(=O)[C@@H]2C[C@@H](O)CN2C(=O)[C@@H](NC(=O)CN2CCC(Cn3cc(-c4cc(-c5ccccc5O)nnc4N)cn3)CC2)C(C)(C)C)cc1` [I-465], for which the Dmax at SMARCA2 [2] and at SMARCA4 was less than 50% each time. For the same molecule, the DC50 at SMARCA2 [2] is greater than 1000 nM; at SMARCA4, 100 to 500 nM.

On to `Cc1ncsc1-c1ccc(CNC(=O)[C@@H]2C[C@@H](O)CN2C(=O)[C@@H](NC(=O)CCCN2CCC(Cn3cc(-c4cc(-c5ccccc5O)nnc4N)cn3)CC2)C(C)(C)C)cc1` [I-467], for which the maximal degradation (Dmax) at SMARCA2 [2] and on SMARCA4 was less than 50% throughout. Further, the DC50 on SMARCA2 [2] and at SMARCA4 was 100 to 500 nM throughout.

In the case of `Cc1ncsc1-c1ccc(CNC(=O)[C@@H]2C[C@@H](O)CN2C(=O)[C@@H](NC(=O)CCCCN2CCC(Cn3cc(-c4cc(-c5ccccc5O)nnc4N)cn3)CC2)C(C)(C)C)cc1` [I-468], on SMARCA2 [2], the Dmax was less than 50% and the DC50 was greater than 1000 nM. On SMARCA4, the maximal degradation (Dmax) was less than 50% and the 50% degradation concentration (DC50) fell in the range of 100 to 500 nM.

On to `Cc1ncsc1-c1ccc(CNC(=O)[C@@H]2C[C@@H](O)CN2C(=O)[C@@H](NC(=O)CN2CCC[C@@H](Cn3cc(-c4cc(-c5ccccc5O)nnc4N)cn3)C2)C(C)(C)C)cc1` [I-469], for which, at SMARCA2 [2], the maximal degradation (Dmax) was less than 50% and the DC50 was in the range of 100 to 500 nM. For the same molecule, on SMARCA4, the greatest degradation seen (Dmax) was in the range of 50 to 70% and the half-maximal degradation concentration (DC50) is 100 to 500 nM.

In the case of `Cc1ncsc1-c1ccc(CNC(=O)[C@@H]2C[C@@H](O)CN2C(=O)[C@@H](NC(=O)CCCCN2CCC[C@@H](Cn3cc(-c4cc(-c5ccccc5O)nnc4N)cn3)C2)C(C)(C)C)cc1` [I-472], on SMARCA2 [2], the greatest degradation seen (Dmax) is less than 50% and the DC50 is 100 to 500 nM. In addition, on SMARCA4, the Dmax was 50 to 70% and the DC50 was 100 to 500 nM.

Take `Cc1ncsc1-c1ccc(CNC(=O)[C@@H]2C[C@@H](O)CN2C(=O)[C@@H](NC(=O)CN2CCN(Cc3ccc(-c4cc(-c5ccccc5O)nnc4N)cc3)CC2)C(C)(C)C)cc1` [I-473]: on SMARCA2 [2], the Dmax was less than 50% and the half-maximal degradation concentration (DC50) is 100 to 500 nM. Also, on SMARCA4, the maximal degradation (Dmax) was less than 50% and the DC50 was in the range of 100 to 500 nM.

As to `Cc1ncsc1-c1ccc(CNC(=O)[C@@H]2C[C@@H](O)CN2C(=O)[C@@H](NC(=O)CCCCN2CCN(Cc3ccc(-c4cc(-c5ccccc5O)nnc4N)cc3)CC2)C(C)(C)C)cc1` [I-476], on SMARCA2 [2], the maximal degradation (Dmax) is less than 50% and the 50% degradation concentration (DC50) lay within 100 to 500 nM. For the same molecule, at SMARCA4, the Dmax was in the range of 50 to 70% and the DC50 is 100 to 500 nM.

With `NCC#Cc1cnc(N2C3CCC2CN(c2cc(-c4ccccc4O)nnc2N)C3)nc1` [I-535, 2-[6-amino-5-[8-[5-(3-aminoprop-1-ynyl)pyrimidin-2-yl]-3,8-diazabicyclo[3.2.1]octan-3-yl]pyridazin-3-yl]phenol], on SMARCA2 [2], the Dmax was less than 50% and the 50% degradation concentration (DC50) was greater than 1000 nM. Besides, at SMARCA4, the greatest degradation seen (Dmax) is less than 50% and the DC50 is less than 100 nM.
